From US4294843A, “Anti-protozoal oxadiazole derivatives” (Burroughs Wellcome Co., priority 1978, dated 1981)

Key:
[1] = LD50 in female rats, oral by gavage; settings: rat, in vivo, 10% w/v suspension in corn oil
Procedure: 1. The LD50 of the compound of Example 3, both as the free base and the hydrochloride salt was determined in female rats by standard techniques the compound being administered as a 10% w/v suspension in corn oil orally by gavage.

LD50 in mice, oral = settings: mouse, in vivo, suspension of 0.25% Celacol
Procedure: 2. The LD50 of the compound of Example 3 was determined in mice by standard techniques, the compound being administered orally in a suspension of 0.25% Celacol.

SMILES: Nc1ccccc1SCc1ncon1 [Example 3, 3-(2-Aminophenylthiomethyl)-1,2,4-oxadiazole]
- LD50 [1]: 79.4 mg/kg
- LD50 (LD50 in mice, oral): ~45 mg/kg
